# In patent publication US10464896B2, “Efflux-pump inhibitors and therapeutic uses thereof” (Basilea Pharmaceutica International AG, priority 2015, dated 2019):
# Test system: E. coli ATCC25922
# Experiment: Antibacterial activity in combination with minocycline (growth inhibition)
# Format: cell-based
# Settings: Escherichia coli, ATCC25922, compound at 25 μM; minocycline 0.25 μg/mL; OD625 23 h minus 1 h; read-out: residual growth of E. coli ATCC25922 (% of uninhibited control) with minocycline
# Protocol: Antibacterial activity in combination with minocycline or with linezolid
# Inhibition of growth was measured with E. coli ATCC25922 and P. aeruginosa PAO1 in a 96-well plate format. Cation-adjusted Müller-Hinton broth (caMHB) was inoculated with an overnight culture and incubated at 37° C. on a shaker until OD625 reached 0.6 to 0.7. Density was adjusted to OD600=0.5 by addition of caMHB. 35 μL of the suspension were diluted to 35 mL with caMHB and supplemented with minocycline at the subinhibitory doses of 0.25 μg/mL for E. coli and 8 μg/mL for P. aeruginosa or with linezolid at the subinhibitory dose of 128 μg/mL for E. coli and P. aeruginosa. Each well contained 1 μL of test compound in 100 μL caMHB with minocycline or with linezolid.
# Plates were incubated at 37° C. on a plate shaker. OD625 was measured at 1 h, 6 h, and at 23 h.
# The difference between OD at 23 h and at 1 h was taken as measure for cell density and compared to controls without inhibitor (i.e. uninhibited control). Results were expressed as residual growth (% of uninhibited control). Enhancement of minocycline or linezolid activity caused reduced residual growth.
row,Structure (SMILES),activity at 25 µM
1,Clc1ccc(COc2ccccc2CCNCC2CNC2)c(Br)c1 [Example 125],≤ 10%
2,Clc1ccc(OCc2ccc(Br)c(OCCCNCC3CNC3)c2)c(Br)c1 [Example 126],≤ 10%
3,O=Cc1cc(CNCC2CNC2)cc(OCc2ccc(Cl)cc2Br)c1 [Example 127],≤ 10%
4,OCc1cc(CNCC2CNC2)cc(OCc2ccc(Cl)cc2Br)c1 [Example 128],≤ 10%
5,"CCOC(=O)/C=C/c1cc(CNCC2CNC2)cc(OCc2ccc(Cl)cc2Br)c1 [Example 129, Ethyl (E)-3-[3-[(azetidin-3-ylmethylamino)methyl]-5-[(2-bromo-4-chloro-phenyl)methoxy]phenyl]prop-2-enoate]",≤ 10%
6,"Clc1ccc(COc2cc(/C=C/c3ccco3)cc(CNCC3CNC3)c2)c(Br)c1 [Example 130, N-(azetidin-3-ylmethyl)-1-[3-[(2-bromo-4-chloro-phenyl)methoxy]-5-[(E)-2-(2-furyl)vinyl]phenyl]methanamine]",≤ 10%
7,FC(F)(F)c1cc(Cl)ccc1COc1cccc(CNCC2CCNC2)c1 (stereo not drawn) [Example 132],≤ 10%
8,Clc1ccc(CSc2ccc(CNCC3CNC3)cc2)c(Br)c1 [Example 133],≤ 10%
9,Clc1ccc(CSc2ccc(CNCC3CCNC3)cc2)c(Br)c1 (stereo not drawn) [Example 134],≤ 10%
10,"Clc1ccc(CSc2cccc(CNCC3CCNC3)c2)c(Br)c1 (stereo not drawn) [Example 136, 1-[3-[(2-bromo-4-chloro-phenyl)methylsulfanyl]phenyl]-N-(pyrrolidin-3-ylmethyl)methanamine]",≤ 10%
11,Clc1ccc(/C=C/c2ccc(CNCC3CNC3)cc2)c(Br)c1 [Example 142],≤ 10%
12,Clc1ccc(/C=C/c2ccc(CNCC3CCNC3)cc2)c(Br)c1 (stereo not drawn) [Example 147],≤ 10%
13,O=[N+]([O-])c1ccc(CNCC2CCNC2)cc1OCc1ccc(Cl)cc1Br (stereo not drawn) [Example 148],≤ 10%
14,"Clc1ccc(C#Cc2cccc(CNCC3CNC3)c2)c(Br)c1 [Example 149, N-(azetidin-3-ylmethyl)-1-[3-[2-(2-bromo-4-chlorophenyl)ethynyl]phenyl]methanamine]",≤ 10%
15,Clc1ccc(C#Cc2cccc(CNCC3CCNC3)c2)c(Br)c1 (stereo not drawn) [Example 150],≤ 10%
16,Clc1cc(/C=C/c2ccc(Cl)cc2Br)cc(CNCC2CCNC2)c1 (stereo not drawn) [Example 157],≤ 10%
17,"Clc1ccc(CNc2cccc(CNCC3CNC3)c2)c(Br)c1 [Example 158, 3-[(azetidin-3-ylmethylamino)methyl]-N-[(2-bromo-4-chloro-phenyl)methyl]aniline]",≤ 10%
18,Clc1cc(/C=C/c2ccc(Cl)cc2Br)cc(CNCC2CNC2)c1 [Example 159],≤ 10%
19,CC(C)Oc1cc(CNCC2CCNC2)cc(OCc2ccc(Cl)cc2Br)c1 (stereo not drawn) [Example 163],≤ 10%
20,Clc1ccc(/C=C/c2cccc(CCNCC3CCNC3)c2)c(Br)c1 (stereo not drawn) [Example 164],≤ 10%
21,"Clc1ccc(/C=C/c2cccc(CCNCC3CNC3)c2)c(Br)c1 [Example 165, N-(azetidin-3-ylmethyl)-2-[3-[(E)-2-(2-bromo-4-chloro-phenyl)vinyl]phenyl]ethanamine]",≤ 10%
22,Clc1ccc(C=CCc2cccc(CNCC3CCNC3)c2)c(Br)c1 (stereo not drawn) [Example 169],≤ 10%

row,Structure (SMILES),activity at 25 µM
1,N[C@@H]1CN[C@@H](CNCc2cccc(/C=C/c3ccc(Cl)cc3Br)c2)C1 [Example 171],≤ 10%
2,N[C@@H]1CN[C@@H](CNCc2cccc(OCc3ccc(Cl)cc3Br)c2)C1 [Example 172],≤ 10%
3,Clc1ccc(COCc2cccc(CNCC3CCNC3)c2)c(Br)c1 (stereo not drawn) [Example 174],≤ 10%
4,N[C@@H]1CN[C@@H](CNCc2cc(Cl)cc(OCc3ccc(Cl)cc3Br)c2)C1 [Example 175],≤ 10%
5,Clc1ccc(COc2cccc(CNCC3CCNC3)c2)c(Cl)c1 (stereo not drawn) [Example 176],≤ 10%
6,C=CCOc1cc(/C=C/c2ccc(Cl)cc2Br)cc(CNCC2CCNC2)c1 (stereo not drawn) [Example 178],≤ 10%
7,C=CCOc1cc(/C=C/c2ccc(Cl)cc2Br)cc(CNCC2CNC2)c1 [Example 180],≤ 10%
8,Clc1ccc(/C=C/c2cc(CNCC3CCNC3)cc(OCc3ccccc3)c2)c(Br)c1 (stereo not drawn) [Example 181],≤ 10%
9,CC(C)COc1cc(/C=C/c2ccc(Cl)cc2Br)cc(CNCC2CCNC2)c1 (stereo not drawn) [Example 182],≤ 10%
10,C=CCOc1cc(CNCC2CNC2)cc(CSc2ccc(Cl)cc2C(F)(F)F)c1 [Example 183],≤ 10%
11,C=CCOc1cc(CNCC2CCNC2)cc(CSc2ccc(Cl)cc2C(F)(F)F)c1 (stereo not drawn) [Example 184],≤ 10%
12,Clc1ccc(/C=C/c2ccc(Cl)cc2OCCCNCC2CCNC2)c(Br)c1 (stereo not drawn) [Example 185],≤ 10%
13,Clc1ccc(/C=C/c2cc(Cl)ccc2OCCCNCC2CCNC2)c(Br)c1 (stereo not drawn) [Example 186],≤ 10%
14,Clc1ccc(/C=C/c2ccc(Cl)cc2OCCCNCC2CNC2)c(Br)c1 [Example 187],≤ 10%
15,Clc1cc(/C=C/c2ccc(Cl)cc2Br)cc(OCCCNCC2CNC2)c1 [Example 188],≤ 10%
16,Clc1cc(/C=C/c2ccc(Cl)cc2Br)cc(OCCCNCC2CCNC2)c1 (stereo not drawn) [Example 189],≤ 10%
17,CC(C)COc1cc(/C=C/c2ccc(Cl)cc2Br)cc(CNCC2CNC2)c1 [Example 190],≤ 10%
18,NCC1CCC(CNCc2cccc(/C=C/c3ccc(Cl)cc3Br)c2)N1 (stereo not drawn) [Example 191],≤ 10%
19,NCC1CCC(CNCc2cc(Cl)cc(OCc3ccc(Cl)cc3Br)c2)N1 (stereo not drawn) [Example 193],≤ 10%
20,C=CCOc1cc(CNCC2CCNC2)cc(CSc2ccc(Cl)cc2Br)c1 (stereo not drawn) [Example 194],≤ 10%
21,C=CCOc1cc(CNCC2CNC2)cc(CSc2ccc(Cl)cc2Br)c1 [Example 196],≤ 10%
22,COC(=O)c1ccc(COc2cc(CNCC3CCNC3)cc(OCc3ccc(Cl)cc3Br)c2)cc1 (stereo not drawn) [Example 197],≤ 10%

row,Structure (SMILES),activity at 25 µM
1,Clc1ccc(/C=C/c2cc(CNCC3CNC3)cc(OCc3ccccc3)c2)c(Br)c1 [Example 198],≤ 10%
2,Clc1ccc(/C=C/c2cc(Cl)ccc2OCCCNCC2CNC2)c(Br)c1 [Example 199],≤ 10%
3,Clc1ccc(/C=C/c2ccccc2OCCCNCC2CNC2)c(Br)c1 [Example 200],≤ 10%
4,"Clc1ccc(/C=C/c2cccc(OCCCNCC3CNC3)c2)c(Br)c1 [Example 201, N-(azetidin-3-ylmethyl)-3-[3-[(E)-2-(2-bromo-4-chloro-phenyl)vinyl]phenoxy]propan-1-amine]",≤ 10%
5,Clc1ccc(/C=C/c2cccc(OCCCNCC3CCNC3)c2)c(Br)c1 (stereo not drawn) [Example 202],≤ 10%
6,Clc1ccc(/C=C/c2ccccc2OCCCNCC2CCNC2)c(Br)c1 (stereo not drawn) [Example 203],≤ 10%
7,O=C(O)c1ccc(COc2cc(CNCC3CCNC3)cc(OCc3ccc(Cl)cc3Br)c2)cc1 (stereo not drawn) [Example 205],≤ 10%
8,Ic1ccc(COc2cccc(CNCC3CCNC3)c2)cc1 (stereo not drawn) [Example 207],≤ 10%
9,Clc1ccc(/C=C/c2cc(Cl)ccc2OCCNCC2CNC2)c(Br)c1 [Example 209],≤ 10%
10,Clc1ccc(/C=C/c2cc(Cl)ccc2OCCNCC2CCNC2)c(Br)c1 (stereo not drawn) [Example 210],≤ 10%
11,C=CCOc1ccc(OCCNCC2CCNC2)c(/C=C/c2ccc(Cl)cc2Br)c1 (stereo not drawn) [Example 211],≤ 10%
12,C=CCOc1ccc(OCCNCC2CNC2)c(/C=C/c2ccc(Cl)cc2Br)c1 [Example 212],≤ 10%
13,C=CCOc1ccc(OCCCNCC2CCNC2)c(/C=C/c2ccc(Cl)cc2Br)c1 (stereo not drawn) [Example 213],≤ 10%
14,C=CCOc1ccc(OCCCNCC2CNC2)c(/C=C/c2ccc(Cl)cc2Br)c1 [Example 214],≤ 10%
15,CC(C)(C)c1ccc(COc2ccc(CNCC3CCNC3)cc2)cc1 (stereo not drawn) [Example 215],≤ 10%
16,CC(C)(C)c1ccc(COc2cccc(CNCC3CCNC3)c2)cc1 (stereo not drawn) [Example 216],≤ 10%
17,CC(C)c1cc(CNCC2CCNC2)cc(OCc2ccc(Cl)cc2Br)c1 (stereo not drawn) [Example 217],≤ 10%
18,CC(C)(C)c1cc(CNCC2CCNC2)cc(OCc2ccc(Cl)cc2Br)c1 (stereo not drawn) [Example 218],≤ 10%
19,CC(C)c1cc(CNCC2CNC2)cc(OCc2ccc(Cl)cc2Br)c1 [Example 224],≤ 10%
20,CC(C)(C)c1cc(CNCC2CNC2)cc(OCc2ccc(Cl)cc2Br)c1 [Example 225],≤ 10%
21,CC(C)(C)c1ccc(COc2cc(Cl)cc(CNC3CCNCC3)c2)cc1 [Example 226],≤ 10%
22,CC(C)(C)c1ccc(COc2cc(Cl)cc(CNCC3CCNC3)c2)cc1 (stereo not drawn) [Example 227],≤ 10%

# Same assay, conditions: Escherichia coli, ATCC25922, compound at 50 μM; minocycline 0.25 μg/mL; OD625 23 h minus 1 h; read-out: residual growth of E. coli ATCC25922 (% of uninhibited control) with minocycline
row,Structure (SMILES),activity at 50 µM
1,"[O-][S+](Cc1ccc(Cl)cc1Br)c1cccc(CNCC2CCNC2)c1 (stereo not drawn) [Example 137, 1-[3-[(2-bromo-4-chloro-phenyl)methylsulfinyl]phenyl]-N-(pyrrolidin-3-ylmethyl)methanamine]",≤ 50%
2,O=S(=O)(Cc1ccc(Cl)cc1Br)c1ccc(CNCC2CNC2)cc1 [Example 138],≤ 50%
3,Ic1ccccc1COc1cccc(CNCC2CNC2)c1 [Example 195],≤ 50%
